Values joined by “and” are separate entries in the source; they are usually repeats but may differ in a detail not shown here. Equal entries are not always repeated. “Also recorded” adds a separate entry of the source. Marks after values point to notes of the source that are not given here.
Assays:
ARPE-19 cells = experiment: Cell proliferation assay (ARPE-19/WST-1); type: cell-based; settings: Homo sapiens, 120 h, 5 days, WST-1, read-out: 50% cytotoxicity concentration (CC50)
Protocol: (§1) Human retinal pigment epithelium (ARPE-19) cells were obtained from the American Type Culture Collection (ATCC; Manassas, VA). A rat Müller cell line, rMC-1, was provided by Dr. Gabe Silva at UC San Diego (originally obtained from Dr. Vijay Sarthy, Northwestern University, Chicago, IL). ARPE-19 cells were cultured in Dulbecco’s modified Eagle medium (DMEM)/F12 and rMC-1 in DMEM. DMEM/F12 medium and DMEM were maintained at 37 °C in a humidified chamber of 5% CO2. All culture media were supplemented with 10% fetal bovine serum, 100 U/ml penicillin, and 100 µg/ml streptomycin. The cell lines were chosen due to their dominant presence in the pathology of proliferative vitreoretinopathy.
ARPE-19 cells were plated in 96-well plates at […] per well. Serial dilutions of the compounds were added to the wells in a total volume of 100 µl. The plates were maintained in a 37 °C incubator. After 5 days, 10 µl of a solution of WST-1 (Roche Diagnostics, Indianapolis, IN) was added to each well, and the plates returned to the incubator for 0.5 h, after which the OD450 of each well was measured. Percent inhibition data were obtained from at least three experiments with at least six wells at each concentration in separate 96-well plates. […] The results were expressed as the percentage of the optical density of treated cells relative to that of untreated controls.

rMC-1 cells = experiment: Cell proliferation assay (rMC-1/XTT); type: cell-based; settings: Rattus norvegicus, 120 h, 5 days, XTT, read-out: 50% cytotoxicity concentration (CC50)
Protocol: as §1
rMC-1 cells were plated in 96-well plates at […] per well. Serial dilutions of the compounds were added to the wells in a total volume of 100 µl. The plates were maintained in a 37 °C incubator. After 5 days, 50 µl of a solution of XTT (Roche Molecular Biochemicals, Indianapolis, IN) was added to each well, and the plates returned to the incubator for 30 min, after which the […] (OD) of each well was measured at a wavelength of 450 nanometers. Percent inhibition was determined by comparing the OD of wells containing compound to the OD of control wells.

[1] = Simulated intravitreal clearance kinetics (dissolution chamber); type: in vitro ADME
Protocol: Dissolution starting from an intravitreal drug depot was simulated using a custom chamber and a syringe pump. The drug powder (600 µg) was weighed into the chamber, which had 1.5 ml of effective circulation volume to mimic the rabbit vitreous. The chamber was filled with 1.5 ml of Hank’s Balanced Salt Solution (HBSS). The chamber was then connected by tubing to a NE-1000 syringe pump (New Era Pump Systems, Farmingdale, NY) on one end and open tubing on the other end so that the solution could be collected into a vial (Figure 1). The syringe pump was set to a flow rate of 2 µl/min [12], and the syringe filled with HBSS. The entire setup was maintained at 37 °C and pumped continuously. This dissolution chamber mimics the rabbit vitreous fluid turnover only. […] At the same time every day, the vial was changed and the contents collected and stored at −80 °C until liquid chromatography/mass spectrometry (LC/MS) was performed.
Figure 1 The dissolution chamber is made of poly methyl methacrylate. Inlet tubing connects from a syringe pump to the upper part of the chamber, and the outlet tubing leaves from the lower part of the chamber to the sample collector. In the center of the dissolution chamber, a titanium mesh circle is installed to prevent the large drug particles reaching the lower chamber to possibly clog the outgoing tubing. The mesh contains […].

rat eyes = experiment: Toxicity study of HDP-P-Ara-C in rat eyes (intravitreal injection); type: in vivo
Protocol: Twelve Brown Norway rats were used to evaluate the effect of intravitreal HDP-P-Ara-C versus control injection. […] Only one eye of each rat was injected with the drug, and the fellow eye was injected with saline as control. Electroretinograms (ERGs) were obtained before drug injection and 1 day before scheduled sacrifice. Following injection, toxicity and safety were evaluated with indirect ophthalmoscopy, biomicroscopy, and fundus photography. At week 2 following drug injections, all of the rats were euthanized with intraperitoneal injection of ketamine (100 mg/kg) and xylazine (10 mg/kg) followed by intraperitoneal injection of 120 mg/kg sodium pentobarbital. Six eyes were used for pathologic evaluation and six eyes used for evaluation of vitreous drug level. Vitreous drug levels were determined at the end of the experiment using high-performance liquid chromatography (HPLC).
(§2) Intraocular pressure (IOP) measurements and ERG recordings were repeated measurement data. Therefore, generalized estimating equations were used to compare the mean IOP and ERG amplitudes between each treatment group and the control group. All analyses were performed with SAS 9.2 software (SAS Institute Inc., Cary, NC), and the difference was considered to be significant when the p value was smaller than 0.05.

rabbit eyes = experiment: Toxicity study of HDP-cP-Ara-C in rabbit eyes (intravitreal injection); type: in vivo; settings: for Dark A amp (dark adapted ERG a-wave amplitude) / Dark B amp / Flicker amp / Light A amp / Light B amp: OD, n=4, in µV (unit assumed)
Text: Sixteen New Zealand Red rabbits were used for this study. Only one eye of each animal was used for the drug testing, and the fellow eye was used as a control by injection of the diluent. […] After the intravitreal injection, the rabbits were examined at week 1, 2, 4, 8, and 12 and then once a month for 7 months. The eyes were monitored with slit-lamp exam, tonometry, indirect ophthalmoscope, and fundus camera. The drug depot size was estimated and recorded using the optic disc area and the drug depot contour in the vitreous. The number of disc areas for estimating the two dimensions of the drug depot and the contour (ball=3, patch=2, filaments and dots=1) provides an estimate of the density of the drug depot. ERGs were recorded from all animals at week 2, week 8, and immediately before the animals were euthanized by deeply anesthetizing the animals with a combined ketamine (24 mg/kg) and xylazine (6 mg/kg) intramuscular injection followed by an intravenous injection of 0.3 ml/kg B-euthanasia (Schering-Plough Animal Health, Kenilworth, NJ).
as §2

[2] = Water solubility (observation); type: physicochemical
[3] = parameters: method as in PMID 1917392; settings: unmodified nucleoside; cited from earlier work
experimental PVR = test system: experimental PVR; parameters: method as in PMID 10359331; settings: intravitreal injection; cited from earlier work
herpes simplex virus = test system: herpes simplex virus; parameters: method as in PMID 15505067; settings: single intravitreal injection; cited from earlier work

CCCCCCCCCCCCCCCCOCCCOP(=O)(O)OC[C@H]1O[C@@H](n2ccc(N)nc2=O)[C@@H](O)[C@@H]1O [HDP-P-Ara-C, hexadecyloxypropyl cytarabine 5′-monophosphate]
CC50 (ARPE-19 cells): 52 ± 2.6 µM | CC50 (rMC-1 cells): 32 ± 2.2 µM | drug in eluate samples ([1]; day 7 and after): no drug was detected | drug cleared from the chamber ([1]; within 3 days, flow rate 2 µl/min): 99% | depot formation in the vitreous (rat eyes; after intravitreal injection): did not form a depot | ocular toxicity (rat eyes; intravitreal 2-228 µg/eye, 2 weeks): no ocular toxicity was found | ERG and pathology (rat eyes; intravitreal, 2 weeks): normal retinal physiology and histology | vitreous drug level (HPLC) (rat eyes; week 2 after intravitreal injection, including highest dose 228 µg/eye): not detectable; also recorded: no drug was detectable; also recorded: no HDP-P-Ara-C was detected

CCCCCCCCCCCCCCCCOCCCOP1(=O)OC[C@H]2O[C@@H](n3ccc(N)nc3=O)[C@@H](O)[C@@H]2O1 (stereo partly shown) [HDP-cP-Ara-C, hexadecyloxypropyl cytarabine 3′,5′-cyclic monophosphate]
CC50 (ARPE-19 cells): 50 µM | CC50 (rMC-1 cells): 25 µM | drug concentration in the eluate (low-level sustained release) ([1]; day 25 to day 36): about 16 ng/mL | day of peak release ([1]; dissolution chamber eluate): 9 days and ~10 days | hydrolysis to HDP-P-Ara-C during the dissolution experiment ([1]; eluate analysis, medium printed as PBS, HBSS): slow hydrolysis | time still detectable in dissolution chamber eluate ([1]; end of experiment, flow rate 2 µL/min): ≥ 36 days | TUNEL staining / retinal structure (rabbit eyes; 250 µg intravitreal, paraffin sections vs fellow eye): No structural abnormality or apoptosis; also recorded: normal structures and negative apoptosis staining | ERG examination (rabbit eyes; 250 µg or lower doses): did not reveal drug toxicity | eyes with direct contact of drug depot with optic nerve or inferior retina (gliosis, discoloration) (rabbit eyes; 800 µg, 7-month study): two eyes out of the four eyes | dark adapted a-wave and flicker ERG amplitude vs fellow control eyes (rabbit eyes; 800 µg/eye): significantly lower | intraocular pressure, injected eyes vs fellow eyes (rabbit eyes; 25-800 µg/eye): no significant difference | estimated time drug depot would be visible (rabbit eyes; 80 or 250 µg/eye, estimation of vitreal clearance): 3 months | time drug depots visible (rabbit eyes; all doses (25-800 µg/eye)): ≥ 2 months | Dark A amp (dark adapted ERG a-wave amplitude) (rabbit eyes; high dose 250 µg/eye): −15.6 | Dark B amp (rabbit eyes; high dose 250 µg/eye): 83.19 | Flicker amp (rabbit eyes; high dose 250 µg/eye): 25.07 | Light A amp (rabbit eyes; high dose 250 µg/eye): −3.57 | Light B amp (rabbit eyes; high dose 250 µg/eye): 49.68 | Dark A amp (dark adapted ERG a-wave amplitude) (rabbit eyes; highest dose 800 µg/eye): −11.69 | Dark B amp (rabbit eyes; highest dose 800 µg/eye): 95.35 | Flicker amp (rabbit eyes; highest dose 800 µg/eye): 21.09 | Light A amp (rabbit eyes; highest dose 800 µg/eye): −5.57 | Light B amp (rabbit eyes; highest dose 800 µg/eye): 48.06 | time drug depot still visible (rabbit eyes; highest dose (800 µg/eye)): ≥ 7 months | well tolerated dose (rabbit eyes; intravitreal): up to 250 µg/eye | Dark A amp (dark adapted ERG a-wave amplitude) (rabbit eyes; low dose 25 µg/eye): −14.44 | Dark B amp (rabbit eyes; low dose 25 µg/eye): 88.14 | Flicker amp (rabbit eyes; low dose 25 µg/eye): 22.58 | Light A amp (rabbit eyes; low dose 25 µg/eye): −4.49 | Light B amp (rabbit eyes; low dose 25 µg/eye): 47.93 | Dark B amp (rabbit eyes; moderate dose 80 µg/eye): 79.31 | Flicker amp (rabbit eyes; moderate dose 80 µg/eye): 23.51 | Light A amp (rabbit eyes; moderate dose 80 µg/eye): −5.64 | Light B amp (rabbit eyes; moderate dose 80 µg/eye): 42.83 | AC cell (eyes affected/eyes) (rabbit eyes; week 1, 25 µg): 0/4 | Fundus abnormality (eyes affected/eyes) (rabbit eyes; week 1, 25 µg): 0/4 | Vit. Clarity (eyes affected/eyes) (rabbit eyes; week 1, 25 µg, haze from vitreous hemorrhage during injection): 1/4# | AC cell (eyes affected/eyes) (rabbit eyes; week 1, 80 µg): 0/4 | Fundus abnormality (eyes affected/eyes) (rabbit eyes; week 1, 80 µg): 0/4 | Vit. Clarity (eyes affected/eyes) (rabbit eyes; week 1, 80 µg): 0/4 | AC cell (eyes affected/eyes) (rabbit eyes; week 1, 250 µg): 0/4 | Fundus abnormality (eyes affected/eyes) (rabbit eyes; week 1, 250 µg): 0/4 | Vit. Clarity (eyes affected/eyes) (rabbit eyes; week 1, 250 µg): 0/4 | AC cell (eyes affected/eyes) (rabbit eyes; week 1, 800 µg): 0/4 | Fundus abnormality (eyes affected/eyes) (rabbit eyes; week 1, 800 µg): 0/4 | Vit. Clarity (eyes affected/eyes) (rabbit eyes; week 1, 800 µg): 0/4 | AC cell (eyes affected/eyes) (rabbit eyes; week 8, 25 µg): 0/4 | Fundus abnormality (eyes affected/eyes) (rabbit eyes; week 8, 25 µg): 0/4 | Vit. Clarity (eyes affected/eyes) (rabbit eyes; week 8, 25 µg): 0/4 | AC cell (eyes affected/eyes) (rabbit eyes; week 8, 80 µg): 0/4 | Fundus abnormality (eyes affected/eyes) (rabbit eyes; week 8, 80 µg): 0/4 | Vit. Clarity (eyes affected/eyes) (rabbit eyes; week 8, 80 µg): 0/4 | AC cell (eyes affected/eyes) (rabbit eyes; week 8, 250 µg): 0/4 | Fundus abnormality (eyes affected/eyes) (rabbit eyes; week 8, 250 µg): 0/4 | Vit. Clarity (eyes affected/eyes) (rabbit eyes; week 8, 250 µg): 0/4 | AC cell (eyes affected/eyes) (rabbit eyes; week 28, 800 µg): 0/4 | Vit. Clarity (eyes affected/eyes) (rabbit eyes; week 28, 800 µg): 0/4 | Fundus abnormality (eyes affected/eyes) (rabbit eyes; week 28, 800 µg, direct contact of depot with medullary ray or inferior retina): 2/4* | water solubility [2]: limited aqueous solubility; also recorded: minimally water soluble; also recorded: sparingly water soluble

Nc1ccn([C@@H]2O[C@H](CO)[C@@H](O)[C@@H]2O)c(=O)n1 [cytarabine, 1-β-D-arabinofuranosylcytosine]
intravitreal half-life [3]: ≤ 12 h

CCCCCCCCCCCCCCCCOCCCOP1(=O)OCC2OC(n3cc(F)c(=O)[nH]c3=O)CC2O1 (stereo not shown) [hexadecyloxypropyl 5-fluoro-2'-deoxyuridine cyclic 3′,5′-monophosphate]
effect on experimental PVR (experimental PVR): inhibited experimental PVR

CCCCCCCCCCCCCCCCOCCCOP1(=O)CO[C@@H](Cn2ccc(N)nc2=O)CO1 (stereo partly shown) [hexadecyloxypropyl cyclic cidofovir]
duration of herpes simplex virus suppression (herpes simplex virus): up to 4 months
